Assay results taken from patent EP1163363B1 (priority 1999, dated 2000).

Assays:
[1] = molecular target: T1, Src kinase (Homo sapiens, UniProt P12931); experiment: Solution phase FRET assay of Src kinase activity (rhodamine labelled SHPS-1 peptide / SHP2-GFP); assay type: biochemical; conditions: 10 µM staurosporine added to the reaction prior to Src enzyme; 3 units of Src kinase, 2 hours at 37°C
T1 construct: purchased Upstate Biotechnology
Procedure: SHPS-1 peptide labelled with rhodamine is phosphorylated using 3 units of Src kinase (Upstate Biotechnology) in a 40 µl reaction containing 100 µM peptide, 50 mM Tris-HCl pH7.2, 1 mM ATP, 10 mM MgCl2, 10 mM β-mercaptoethanol, 0.1 mg/ml BSA and 0.015%(v/v) Brij 35, over a period of 2 hours at 37°C. Non-phosphorylated control samples are prepared under identical conditions in the absence of the kinase.
SHP2-GFP is diluted to 0.5 µM in assay buffer (50 mM Tris-HCl pH7.2, 10 mM β-mercaptoethanol, 0.5mg/ml BSA, 0.015% Brij 35). 98 µl of this solution is used per assay. Initial readings of the fluorescence of the SHP2-GFP construct are made using 485nm excitation wavelength and 520nm emission wavelength. Rhodamine labelled peptide (2µl of above phosphorylation reactions) is added to the SHP2-GFP solution and formation of FRET followed in real-time by measuring the decrease in fluorescence emission of SHP2-GFP at 520 nm as shown in Figure 13.
Phosphonlation of the peptide is prevented by inhibiting the enzyme, Src, with the potent kinase inhibitor staurosporine. Phosphorylation of the rhodamine labelled SHPS-1 peptide is performed as described above in the presence and absence of 10 µM staurosporine added to the reaction prior to Src enzyme.

[2] = molecular target: T2, Yersinia protein tyrosine phosphatase (YOP) (Yersinia enterocolitica, UniProt P15273); assay type: biochemical
T2 construct: purchased Upstate Biotechnology
T2 sequence (P15273 whole entry): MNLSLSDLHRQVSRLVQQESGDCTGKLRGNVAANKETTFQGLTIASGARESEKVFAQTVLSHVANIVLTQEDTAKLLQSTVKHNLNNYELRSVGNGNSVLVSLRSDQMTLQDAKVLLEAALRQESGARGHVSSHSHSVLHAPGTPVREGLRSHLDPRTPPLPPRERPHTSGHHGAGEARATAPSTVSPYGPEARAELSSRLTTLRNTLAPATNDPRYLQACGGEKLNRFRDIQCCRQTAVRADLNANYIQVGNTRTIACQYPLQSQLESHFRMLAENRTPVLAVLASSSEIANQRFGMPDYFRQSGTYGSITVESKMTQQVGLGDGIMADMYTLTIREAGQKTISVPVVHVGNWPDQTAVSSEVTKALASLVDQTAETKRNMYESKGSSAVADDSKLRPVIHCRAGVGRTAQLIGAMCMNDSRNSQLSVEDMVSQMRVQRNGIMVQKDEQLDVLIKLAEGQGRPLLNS

T1 sequence (P12931 whole entry): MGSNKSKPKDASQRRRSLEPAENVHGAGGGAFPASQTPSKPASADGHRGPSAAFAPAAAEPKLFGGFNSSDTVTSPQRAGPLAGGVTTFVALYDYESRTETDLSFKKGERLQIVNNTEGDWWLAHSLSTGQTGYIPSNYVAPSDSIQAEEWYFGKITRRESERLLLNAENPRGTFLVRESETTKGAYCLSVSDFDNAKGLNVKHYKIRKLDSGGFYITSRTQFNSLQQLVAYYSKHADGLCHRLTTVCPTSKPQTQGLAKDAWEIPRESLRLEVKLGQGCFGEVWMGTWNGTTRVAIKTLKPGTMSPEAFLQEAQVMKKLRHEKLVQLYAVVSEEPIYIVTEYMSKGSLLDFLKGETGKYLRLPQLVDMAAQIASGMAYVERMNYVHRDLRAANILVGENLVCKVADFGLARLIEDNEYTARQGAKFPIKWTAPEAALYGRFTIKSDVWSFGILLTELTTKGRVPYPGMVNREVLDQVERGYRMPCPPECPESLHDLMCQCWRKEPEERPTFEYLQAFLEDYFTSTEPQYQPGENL

Structure (SMILES)	Inhibition of Src phosphorylation of SHPS-1 peptide (formation of FRET partnership with SHP2-GFP) [1]	IC50 [2] [nM]
CN[C@@H]1C[C@H]2O[C@@](C)([C@@H]1OC)n1c3ccccc3c3c4c(c5c6ccccc6n2c5c31)C(=O)NC4 [staurosporine]	fail to form a FRET partnership	–
[Na+].[Na+].[Na+].[O]=[V]([O-])([O-])[O-] [sodium orthovanadate, Sodium orthovanadate]	–	250
